Laboratory results as given in ChEMBL document CHEMBL1649565, “Besifloxacin, a novel fluoroquinolone, has broad-spectrum in vitro activity against aerobic and anaerobic bacteria” (Antimicrob Agents Chemother, 2009).
≈ marks a conversion by molar mass, not a printed value. Calls of active or inactive are those of the source. The calls are words filed in the database; no cut-off is given here.

Columns and labels:
Type in all cases: functional
Listeria monocytogenes [1] = assay: Antibacterial activity against Listeria monocytogenes by CLSI M100-S18 method
[2] = Antibacterial activity against Lancefield Streptococcus sp. 'group C' by CLSI M100-S18 method
Streptococcus sp. = assay: Antibacterial activity against Lancefield Streptococcus sp. group F by CLSI M100-S18 method
[3] = Antibacterial activity against Lancefield Streptococcus sp. 'group G' by CLSI M100-S18 method
Streptococcus pneumoniae [4] = assay: Antibacterial activity against levofloxacin-susceptible Streptococcus pneumoniae by CLSI M100-S18 method
Streptococcus pneumoniae [5] = assay: Antibacterial activity against non-levofloxacin susceptible Streptococcus pneumoniae by CLSI M100-S18 method
Streptococcus pyogenes = assay: Antibacterial activity against Streptococcus pyogenes by CLSI M100-S18 method
Streptococcus anginosus [6] = assay: Antibacterial activity against Streptococcus anginosus by CLSI M100-S18 method
Streptococcus equinus [7] = assay: Antibacterial activity against Streptococcus bovis by CLSI M100-S18 method
[8] = system: Streptococcus constellatus; assay: Antibacterial activity against Streptococcus constellatus by CLSI M100-S18 method
[9] = system: Streptococcus intermedius; assay: Antibacterial activity against Streptococcus intermedius by CLSI M100-S18 method
Streptococcus mitis [10] = assay: Antibacterial activity against Streptococcus mitis by CLSI M100-S18 method
Streptococcus oralis [11] = assay: Antibacterial activity against Streptococcus oralis by CLSI M100-S18 method
Streptococcus salivarius [12] = assay: Antibacterial activity against Streptococcus salivarius by CLSI M100-S18 method
Streptococcus sanguinis [13] = assay: Antibacterial activity against Streptococcus sanguinis by CLSI M100-S18 method
Haemophilus influenzae [14] = assay: Antibacterial activity against ciprofloxacin-susceptible Haemophilus influenzae by CLSI M7-A7 method
Haemophilus influenzae [15] = assay: Antibacterial activity against non-ciprofloxacin-susceptible Haemophilus influenzae by CLSI M7-A7 method
Neisseria meningitidis [16] = assay: Antibacterial activity against Neisseria meningitidis by CLSI M7-A7 method
Listeria monocytogenes [17] = assay: Antibacterial activity against Listeria monocytogenes assessed as percent susceptible isolates by CLSI M100-S18 method
Streptococcus pneumoniae [18] = assay: Antibacterial activity against levofloxacin susceptible Streptococcus pneumoniae assessed as percent susceptible isolates by CLSI M100-S18 method
Streptococcus pneumoniae [19] = assay: Antibacterial activity against non-levofloxacin susceptible Streptococcus pneumoniae assessed as percent susceptible isolates by CLSI M100-S18 method
Streptococcus anginosus [20] = assay: Antibacterial activity against Streptococcus anginosus assessed as percent susceptible isolates by CLSI M100-S18 method
Streptococcus equinus [21] = assay: Antibacterial activity against Streptococcus bovis assessed as percent susceptible isolates by CLSI M100-S18 method
[22] = system: Streptococcus constellatus; assay: Antibacterial activity against Streptococcus constellatus assessed as percent susceptible isolates by CLSI M100-S18 method
[23] = system: Streptococcus intermedius; assay: Antibacterial activity against Streptococcus intermedius assessed as percent susceptible isolates by CLSI M100-S18 method
Streptococcus mitis [24] = assay: Antibacterial activity against Streptococcus mitis assessed as percent susceptible isolates by CLSI M100-S18 method
Streptococcus oralis [25] = assay: Antibacterial activity against Streptococcus oralis assessed as percent susceptible isolates by CLSI M100-S18 method
Streptococcus salivarius [26] = assay: Antibacterial activity against Streptococcus salivarius assessed as percent susceptible isolates by CLSI M100-S18 method
Streptococcus sanguinis [27] = assay: Antibacterial activity against Streptococcus sanguinis assessed as percent susceptible isolates by CLSI M100-S18 method
Haemophilus influenzae [28] = assay: Antibacterial activity against ciprofloxacin-susceptible Haemophilus influenzae assessed as percent susceptible isolates by CLSI M7-A7 method
Haemophilus influenzae [29] = assay: Antibacterial activity against non-ciprofloxacin-susceptible Haemophilus influenzae assessed as percent susceptible isolates by CLSI M7-A7 method
Neisseria meningitidis [30] = assay: Antibacterial activity against Neisseria meningitidis assessed as percent susceptible isolates by CLSI M7-A7 method
Enterococcus faecalis [31] = assay: Antibacterial activity against vancomycin- resistant Enterococcus faecalis by CLSI M100-S18 method
Enterococcus faecium [32] = assay: Antibacterial activity against vancomycin- resistant Enterococcus faecium by CLSI M100-S18 method
Enterococcus faecalis [33] = assay: Antibacterial activity against vancomycin- resistant Enterococcus faecalis assessed as percent susceptible isolates by CLSI M100-S18 method
Enterococcus faecium [34] = assay: Antibacterial activity against vancomycin- resistant Enterococcus faecium assessed as percent susceptible isolates by CLSI M100-S18 method

SMILES: CC1(C)S[C@@H]2[C@H](NC(=O)Cc3ccccc3)C(=O)N2[C@H]1C(=O)O [PENICILLIN G]
- MIC50 (Listeria monocytogenes [1]): 0.25 µg/mL (≈ 0.748 µM)
- MIC90 (Listeria monocytogenes [1]): 0.25 µg/mL (≈ 0.748 µM)
- MIC50 [2]: 8 µg/mL (≈ 23.9 µM)
- MIC90 [2]: 16 µg/mL (≈ 47.8 µM)
- MIC50 (Streptococcus sp.): 8 µg/mL (≈ 23.9 µM)
- MIC90 (Streptococcus sp.): 16 µg/mL (≈ 47.8 µM)
- MIC50 [3]: 8 µg/mL (≈ 23.9 µM)
- MIC90 [3]: 16 µg/mL (≈ 47.8 µM)
- MIC (Streptococcus pneumoniae [4]): ≤ 0.06 µg/mL
- MIC50 (Streptococcus pneumoniae [4]): ≤ 0.06 µg/mL
- MIC90 (Streptococcus pneumoniae [4]): 0.5 µg/mL (≈ 1.5 µM)
- MIC50 (Streptococcus pneumoniae [5]): 0.12 µg/mL (≈ 0.359 µM)
- MIC90 (Streptococcus pneumoniae [5]): 2 µg/mL (≈ 5.98 µM)
- MIC (Streptococcus pyogenes): ≤ 0.015 µg/mL
- MIC50 (Streptococcus pyogenes): ≤ 0.015 µg/mL
- MIC90 (Streptococcus pyogenes): ≤ 0.015 µg/mL
- MIC50 (Streptococcus anginosus [6]): 0.06 µg/mL (≈ 0.179 µM)
- MIC90 (Streptococcus anginosus [6]): 1 µg/mL (≈ 2.99 µM)
- MIC50 (Streptococcus equinus [7]): 16 µg/mL (≈ 47.8 µM)
- MIC90 (Streptococcus equinus [7]): 32 µg/mL (≈ 95.7 µM)
- MIC50 [8]: 16 µg/mL (≈ 47.8 µM)
- MIC90 [8]: 32 µg/mL (≈ 95.7 µM)
- MIC50 [9]: 16 µg/mL (≈ 47.8 µM)
- MIC90 [9]: 32 µg/mL (≈ 95.7 µM)
- MIC50 (Streptococcus mitis [10]): 16 µg/mL (≈ 47.8 µM)
- MIC90 (Streptococcus mitis [10]): 32 µg/mL (≈ 95.7 µM)
- MIC50 (Streptococcus oralis [11]): 16 µg/mL (≈ 47.8 µM)
- MIC90 (Streptococcus oralis [11]): 32 µg/mL (≈ 95.7 µM)
- MIC50 (Streptococcus salivarius [12]): 16 µg/mL (≈ 47.8 µM)
- MIC90 (Streptococcus salivarius [12]): 32 µg/mL (≈ 95.7 µM)
- MIC50 (Streptococcus sanguinis [13]): 16 µg/mL (≈ 47.8 µM)
- MIC90 (Streptococcus sanguinis [13]): 32 µg/mL (≈ 95.7 µM)
- MIC50 (Haemophilus influenzae [14]): 0.5 µg/mL (≈ 1.5 µM)
- MIC90 (Haemophilus influenzae [14]): > 4 µg/mL
- MIC50 (Haemophilus influenzae [15]): 1 µg/mL (≈ 2.99 µM)
- MIC90 (Haemophilus influenzae [15]): 2 µg/mL (≈ 5.98 µM)
- MIC (Neisseria meningitidis [16]): ≤ 0.06 µg/mL
- MIC50 (Neisseria meningitidis [16]): ≤ 0.06 µg/mL
- MIC90 (Neisseria meningitidis [16]): 0.12 µg/mL (≈ 0.359 µM)
- Activity (Listeria monocytogenes [17]): 100%
- Activity (Streptococcus pneumoniae [18]): 100%
- Activity (Streptococcus pneumoniae [19]): 100%
- Activity (Streptococcus anginosus [20]): 53.2%
- Activity (Streptococcus equinus [21]): 53.2%
- Activity [22]: 53.2%
- Activity [23]: 53.2%
- Activity (Streptococcus mitis [24]): 53.2%
- Activity (Streptococcus oralis [25]): 53.2%
- Activity (Streptococcus salivarius [26]): 53.2%
- Activity (Streptococcus sanguinis [27]): 53.2%
- Activity (Haemophilus influenzae [28]): inactive
- Activity (Haemophilus influenzae [29]): inactive
- Activity (Neisseria meningitidis [30]): 50%

SMILES: CN[C@H](CC(C)C)C(=O)N[C@H]1C(=O)N[C@@H](CC(N)=O)C(=O)N[C@H]2C(=O)N[C@H]3C(=O)N[C@H](C(=O)N[C@H](C(=O)O)c4cc(O)cc(O)c4-c4cc3ccc4O)[C@H](O)c3ccc(c(Cl)c3)Oc3cc2cc(c3O[C@@H]2O[C@H](CO)[C@@H](O)[C@H](O)[C@H]2O[C@H]2C[C@](C)(N)[C@H](O)[C@H](C)O2)Oc2ccc(cc2Cl)[C@H]1O [VANCOMYCIN]
- MIC50 (Enterococcus faecalis [31]): 1 µg/mL (≈ 0.69 µM)
- MIC90 (Enterococcus faecalis [31]): > 32 µg/mL
- MIC (Enterococcus faecium [32]): ≤ 0.5 µg/mL
- MIC50 (Enterococcus faecium [32]): ≤ 0.5 µg/mL
- MIC90 (Enterococcus faecium [32]): > 32 µg/mL
- Activity (Enterococcus faecalis [33]): 80%
- Activity (Enterococcus faecium [34]): 87.3%
